Like-named read-outs stand apart in the source and are kept apart here.
What was measured:
[1] = tested on: Non-Iron-Overloaded Rodents; conditions: rats, po, 300 μmol/kg, historical data, cited from earlier work
[2] = tested on: Iron-Overloaded Cebus apella Primates; conditions: Cebus apella, po, 150 μmol/kg, historical data, cited from earlier work
[3] = tested on: Non-Iron-Overloaded Rodents; assay: Chelator-induced iron clearance in non-iron-overloaded, bile duct-cannulated rats; assay type: in vivo, rat (male Sprague-Dawley); conditions: po, 300 μmol/kg
Text: Chelator-Induced Iron Clearance in Non-Iron-Overloaded Rodents. […] J. Med. Chem. 2006, 49, 2772-2783]. Recall that iron-clearing efficiency (ICE) is defined as (net iron excretion)/(total iron-binding capacity of the chelator), expressed as a percent. The relative ICE values of compounds 1 and 2 were in keeping with their log Papp values: the more lipophilic, the larger log Papp, the more efficient the chelator. […] However, the ICE trend was in keeping with the biliary ferrokinetics (FIG. 3) and liver concentration of the chelators, for example, 3>1 (FIG. 4).
Cannulation of Bile Duct in Non-Iron-Overloaded Rats has been described previously. […]. […] The urine sample(s) was taken at 24 h intervals. Sample collection and handling are as previously described [Bergeron, R. J., Streiff, R. R., Creary, E. A., Daniels, R. D., Jr., King, W., Luchetta, G., Wiegand, J., Moerker, T. and Peter, H. H. A Comparative Study of the Iron-Clearing Properties of Desferrithiocin Analogues with Desferrioxamine B in a Cebus Monkey Model. Blood 1993, 81, 2166-2173; Bergeron, R. J., Streiff, R. R., Wiegand, J., Vinson, J. R. T., Luchetta, G., Evans, K. M., Peter, H. and Jenny, H.-B. A Comparative Evaluation of Iron Clearance Models. Ann. N.Y. Acad. Sci. 1990, 612, 378-393].
In the iron-clearing experiments, the rats were given a single 300 μmol/kg dose of drugs 1-9 orally (po).
J. Med. Chem. 1999, 42, 2432-2440].

Compound | Iron-Clearing Efficiency (%) [1] | Iron-Clearing Efficiency (%) [2] | relative percentages of the iron excreted in the stool and urine [2] | further results
C[C@]1(C(=O)O)CSC(c2cc(O)ccc2O)=N1 [Compound 4, (S)-2-(2,5-dihydroxyphenyl)-4,5-dihydro-4-methyl-4-thiazolecarboxylic acid] | 1.0±0.9% | 12.6±3.0% | – | –
COc1ccc(O)c(C2=N[C@@](C)(C(=O)O)CS2)c1 [Compound 5, (S)-4,5-dihydro-2-(2-hydroxy-5-methoxyphenyl)-4-methyl-4-thiazolecarboxylic acid] | 6.3±1.2% | 18.9±2.3% | – | –
COc1cccc(C2=N[C@@](C)(C(=O)O)CS2)c1O [Compound 8] | – | 22.5±7.1% | – | Iron-Clearing Efficiency (%) ([3]; 48 h sample collection period): 12.4±3.5%
C[C@]1(C(=O)O)CSC(c2ccc(O)cc2O)=N1 [drawing 3] | 1.1 ± 0.8% | – | – | relative percentages of the iron excreted in the bile and urine [1]: 100/0
COc1ccc(C2=N[C@@](C)(C(=O)O)CS2)c(O)c1 [drawing 4] | 6.6 ± 2.8% | – | – | relative percentages of the iron excreted in the bile and urine [1]: 98/2
COCCOCCOCCOc1ccc(C2=N[C@@](C)(C(=O)O)CS2)c(O)c1 [drawing 5] | 5.5 ± 1.9% | – | – | relative percentages of the iron excreted in the bile and urine [1]: 90/10
C[C@]1(C(=O)O)CSC(c2cc(O)ccc2O)=N1 [drawing 6] | 1.0 ± 0.9% | – | – | relative percentages of the iron excreted in the bile and urine [1]: 99/1
COc1ccc(O)c(C2=N[C@@](C)(C(=O)O)CS2)c1 [drawing 7] | 6.3 ± 1.2% | – | – | relative percentages of the iron excreted in the bile and urine [1]: 95/5
COCCOCCOCCOc1ccc(O)c(C2=N[C@@](C)(C(=O)O)CS2)c1 [drawing 8] | – | – | – | Iron-Clearing Efficiency (%) [3]: 8.0 ± 1.8%; relative percentages of the iron excreted in the bile and urine [3]: 98/2
C[C@]1(C(=O)O)CSC(c2cccc(O)c2O)=N1 [drawing 9] | – | – | – | Iron-Clearing Efficiency (%) [3]: 4.6 ± 0.9%; relative percentages of the iron excreted in the bile and urine [3]: 98/2
COc1cccc(C2=N[C@@](C)(C(=O)O)CS2)c1O [drawing 10] | – | – | – | Iron-Clearing Efficiency (%) ([3]; 48 h sample collection period): 12.4 ± 3.5%; relative percentages of the iron excreted in the bile and urine ([3]; 48 h sample collection period): 99/1
COCCOCCOCCOc1cccc(C2=N[C@@](C)(C(=O)O)CS2)c1O [drawing 11] | – | – | – | Iron-Clearing Efficiency (%) ([3]; 48 h sample collection period): 10.6 ± 4.4%; relative percentages of the iron excreted in the bile and urine ([3]; 48 h sample collection period): 95/5
C[C@]1(C(=O)O)CSC(c2ccc(O)cc2O)=N1 [drawing 12] | – | 16.8 ± 7.2% | 88/12 | –
COc1ccc(C2=N[C@@](C)(C(=O)O)CS2)c(O)c1 [drawing 13] | – | 24.4 ± 10.8% | 91/9 | –
COCCOCCOCCOc1ccc(C2=N[C@@](C)(C(=O)O)CS2)c(O)c1 [drawing 14] | – | 25.4 ± 7.4% | 96/4 | –
C[C@]1(C(=O)O)CSC(c2cc(O)ccc2O)=N1 [drawing 15] | – | 12.6 ± 3.0% | 88/12 | –
COc1ccc(O)c(C2=N[C@@](C)(C(=O)O)CS2)c1 [drawing 16] | – | 18.9 ± 2.3% | 94/6 | –
C[C@]1(C(=O)O)CSC(c2cccc(O)c2O)=N1 [drawing 18] | – | 23.1 ± 5.9% | 83/17 | –
COc1cccc(C2=N[C@@](C)(C(=O)O)CS2)c1O [drawing 19] | – | 22.5 ± 7.1% | 91/9 | –
